Source: patent US7781410B2 (priority 2006, dated 2010)

System: Sebocytes
Assay: cells
Type: cell-based, human
Conditions: for inhibition at 3 µM: Homo sapiens, read-out: % Reduction in Lipid Synthesis in Sebocytes [3 uM]; for % Reduction in Lipid Synthesis in Sebocytes [3 uM]: compound at 3 uM; for % Cholera Toxin Reduction: Green Tea Extract 0.0 μg/mL

Compound	% Reduction in Lipid Synthesis in Sebocytes [3 uM]	further results
COc1ccc(C(=O)/C=C/c2ccc(OC)c(OC)c2)c(O)c1	–	inhibition at 3 µM: 12.4%
O=C(/C=C/c1ccc(O)c(O)c1)c1ccc(O)cc1O	–	inhibition at 3 µM: 12.8%
COc1cc(O)c(C(=O)/C=C/c2ccc(OC)c(OC)c2)c(O)c1	–	inhibition at 3 µM: 20.5%
O=C(/C=C/c1ccc(O)c(O)c1)c1c(O)cc(O)cc1O	Not Active	–
COc1cc(O)c(C(=O)/C=C/c2ccc(OC)c(O)c2)c(OC)c1	–	inhibition at 3 µM: 25.6%
COc1cc(OC)c(C(=O)/C=C/c2ccc(OC)c(OC)c2)c(OC)c1	Not Active	–
O=C1c2ccc(O)cc2OC1Cc1ccc(O)c(O)c1 (centres unmarked)	–	inhibition at 3 µM: 26.9%
COc1cc(OC)c(C(=O)/C=C/c2ccc(O)cc2)c(OC)c1	Not Active	–
COc1ccc(/C=C/C(=O)c2c(O)cc(OC)cc2OC)cc1	–	inhibition at 3 µM: 28.4%
COc1ccc(C(=O)/C=C/c2cc(OC)c(OC)c(OC)c2)c(O)c1	Not Active	–
COc1ccc(O)c(C(=O)/C=C/c2cccc(OC)c2OC)c1	–	inhibition at 3 µM: 28.7%
COc1cc(OC)c(C(=O)/C=C/c2ccc(O)cc2OC)c(OC)c1	Not Active	–
COc1cc(OC)c(C(=O)/C=C/c2ccc(OC)c(O)c2)c(OC)c1	Not Active	–
COc1cc(/C=C/C(=O)c2ccc(O)cc2C)cc(OC)c1OC	Not Active	–
COc1cccc(/C=C/C(=O)c2ccc(O)cc2O)c1OC	Not Active	–
COc1ccc(/C=C/C(=O)c2ccc(O)cc2O)cc1OC	Not Active	–
COc1cc(/C=C/C(=O)c2ccc(O)cc2O)ccc1O	Not Active	–
COc1ccc(/C=C/C(=O)c2c(O)cc(OC)c(OC)c2OC)c(OC)c1	Not Active	–
COc1cc(O)c(C(=O)/C=C/c2ccc(O)c(OC)c2)c(OC)c1	Not Active	–
COc1ccc(C(=O)/C=C/c2cccc(OC)c2OC)c(O)c1	Not Active	–
O=C(/C=C/c1ccc(O)c(O)c1)c1ccc(OC2O[C@H](CO)C(O)[C@H](O)C2O)c(O)c1O (some centres unmarked)	Not Active	–
COc1ccc(C(=O)/C=C/c2ccc(OC)cc2OC)c(O)c1	Not Active	–
COc1c(/C=C/C(=O)c2ccc(O)cc2)ccc(O)c1O	Not Active	–
COc1ccc(/C=C/C(=O)c2cc(OC)ccc2O)c(OC)c1	Not Active	–
COc1ccc(O)c(C(=O)/C=C/c2ccc(OC)c(OC)c2)c1	Not Active	–
O=C(/C=C/c1ccccc1O)c1ccccc1O [2,2′-dihydroxy-chalcone]	–	% Cholera Toxin Reduction (2,2′-dihydroxychalcone 0.3 μM): 14.3%; % Cholera Toxin Reduction (2,2′-dihydroxychalcone 1.0 μM): 38.2%; % Cholera Toxin Reduction (2,2′-dihydroxychalcone 3.0 μM): 50.8%
O=C(/C=C/c1ccccc1O)c1ccccc1O [drawing 18]	–	inhibition at 3 µM: 47.3%
